Entries after “also recorded” stand apart in the source; their conditions may differ.

Data set [1] has as its system EMX1 locus in HEK293T cells. The data set can be described thus: HDR frequency by HindIII digestion, EMX1 locus, HEK293T cells. The format is cell-based, human. To be noted: for HDR efficiency: 50-200 ρmol template 1. The text has this: (§1) For EMX1: forward [NT] ID NO:1404) and [NT] NO:1405). For DYRK1: forward [NT] ID NO:1406) and reverse [NT] NO:1407).
For data set [2], the system named is EMX1 locus in HEK293T cells. The data set can be described thus: NHEJ frequency by T7 endonuclease I assay, EMX1 locus, HEK293T cells. The format is cell-based, human. The note with it: for NHEJ frequency: nocodazole-treated cells (200 ng/ml, 17 h), 50-200 ρmol template 1.
Excerpt: as §1

The next data set concerns HEK293T cells. The data set can be described thus: FACS analysis of DNA content / cell cycle. The format is cell-based, human. To be noted: nocodazole-treated vs untreated cells. The text has this: The first objective was to test whether S phase was ideal for HDR in HEK293T cells. The approach was to chemically and reversibly synchronize the cells at G1, S and M phases (FIG. 1A). Lovastatin blocks at early G1 and partially at G2/M phase, by inhibiting HMG-CoA reductase and resulting in the depletion of mevalonate, which is an essential substrate for cholesterol synthesis. Mimosine arrests cells at the G1-S border prior to onset of DNA replication by an unknown mechanism. […] Excess thymidine causes feedback inhibition of deoxycytosine synthesis. Hydroxyurea blocks cells at S phase by decreasing the production of deoxyribonucleotide via inhibition of the enzyme ribonucleotide reductase. Nocodazole inhibits microtubule polymerization which is a signature structural feature as cells enter mitosis, causing arrest at G2/M phase. The drugs effects were confirmed by fluorescence activated cell sorter (FACS) analysis of the cell cycle (FIG. 1B).
FIG. 1A-1D depict the effect of cell cycle synchronization on NHEJ and HDR frequencies in HEK293T cells. (A) Chemical inhibitors were used to arrest cells at specific phases of cell cycle. Lovastatin (Lov) blocks cells in G1 phase by inhibiting cholesterol synthesis. […] The mean % NHEJ/HDR and standard deviation (error bars) were calculated from three experiments.
In general terms: Flow cytometry measures light scatter and fluorescence of single cells or particles in a stream.

In data set [3] the test system is DYRK1 locus in HEK293T cells. The data set can be described thus: NHEJ frequency by T7 endonuclease I assay, DYRK1 locus, HEK293T cells. The format is cell-based, human. The note with it: for NHEJ frequency: nocodazole synchronized cells.
Data set [4] concerns DYRK1 locus in HEK293T cells. The data set can be described thus: HDR frequency by HindIII digestion, DYRK1 locus, HEK293T cells. The note with it: for HDR frequency: nocodazole synchronized cells. The format is cell-based, human.
Data set [5] deals with EMX1 locus in human embryonic stem cells (hES). The data set can be described thus: HDR frequency by HindIII digestion, EMX1 locus, human ES cells. To be noted: nocodazole synchronization (16 h), 30 or 100 ρmol Cas9 RNP, template 4. The format is cell-based.
For data set [6] the test system is unchanged. The data set can be described thus: NHEJ frequency by T7 endonuclease I assay, EMX1 locus, human ES cells. The format is cell-based. The note with it: nocodazole synchronization (16 h), 100 ρmol template 4.
A further data set deals with human ES cells. The data set is described as follows: Cell viability of human ES cells during synchronization. The format is cell-based. The note with it: hES cells; aphidicolin treatment after nocodazole, at 10 h.
Setting [7] is: 30 ρmol of Cas9, 100 ρmol template 1.
[8] abbreviates: 100 ρmol of Cas9, 100 ρmol template 1.
Setting [9] is: nocodazole synchronization, 30 ρmol Cas9 RNP, 50 ρmol HDR template.
Where [10] appears, read: all doses of Cas9 RNP, vs unsynchronized.
Setting [11] is: inhibitor-synchronized cells, 30 ρmol of Cas9, 100 ρmol template 1.
Setting [12] is: 30 and 100 ρmol Cas9 RNP, 100 ρmol HDR template 1, inhibitor synchronization before nucleofection.

Regarding `Cc1cn([C@H]2C[C@H](O)[C@@H](CO)O2)c(=O)[nH]c1=O` [thymidine], the “HDR frequency compared to the unsynchronized cells” value in data set [1] (setting [7]) is listed as “slightly reduced”. Moreover, the “HDR frequency compared to the unsynchronized cells (reduced or not)” value in data set [1] (setting [8]) is “not”. The “NHEJ frequency compared to the unsynchronized cells” value in data set [2] (setting [7]) is “slightly reduced”. For the same molecule, the “NHEJ frequency compared to the unsynchronized cells (reduced or not)” value in data set [2] (setting [8]) is on record as “not”.

With “template 2: single-stranded oligonucleotide HDR template with HindIII and BamHI sites, 30-nt homology arms (DNA GGATCCAAGCTT; single-stranded DNA HDR donor oligonucleotide, chemistry not given here)”, the HDR frequency in data set [1] (setting [9]) came to 5%.

In turn, “template 6: double-stranded HDR template PCR amplified from single-stranded template 5 (sense AAGCTTGGATCC; antisense GGATCCAAGCTT; DNA, phosphodiester; double-stranded PCR-amplified HDR donor)” displayed an HDR frequency in data set [1] (setting [9]) of approximately 7%.

The molecule “template 3: single-stranded oligonucleotide HDR template with HindIII and BamHI sites, 60-nt homology arms (DNA GGATCCAAGCTT; single-stranded DNA HDR donor oligonucleotide, chemistry not given here)” registered an HDR frequency in data set [1] (setting [9]) of 19%. The “Increase of HDR frequency on extending homology arms from 30 nt to 60 nt” value in data set [1] (nocodazole synchronization, vs template 2) is reported as “four-fold”.

“template 7: double-stranded HDR template assembled from two fragments by overlapping PCR of HEK293T genomic DNA (sense AAGCTTGGATCC; antisense GGATCCAAGCTT; DNA, phosphodiester; double-stranded HDR donor assembled by overlapping PCR)” returned an HDR frequency in data set [1] (setting [9]) of approximately 7%.

As for `COC(=O)Nc1nc2ccc(C(=O)c3cccs3)cc2[nH]1` [nocodazole], the “Enrichment of cells arrested at M phase (DNA content, FACS)” value in the data set on HEK293T cells is “two-fold enrichment; also recorded: three-fold enrichment”. Moreover, in data set [3] (setting [10]), the “Enhancement of NHEJ frequency by nocodazole synchronization” value was “more than two-fold”. The NHEJ frequency is listed as 20-24% in data set [3] (10 ρmol Cas9 RNP); 45-47% in data set [3] (30 ρmol Cas9 RNP); 63-65% in data set [3] (100 ρmol Cas9 RNP); 15-17% in data set [2] (10 ρmol Cas9 RNP); 35-37% in data set [2] (30 ρmol Cas9 RNP); 46-49% in data set [2] (100 ρmol Cas9 RNP). Also, the NHEJ frequency in data set [6] (30 ρmol Cas9 RNP) is on record as 9%; in data set [6] (100 ρmol Cas9 RNP), 28-31%. In data set [1] (30 ρmol Cas9 RNP, 50 ρmol HDR template (templates 1-7)), the “HDR frequency relative to the unsynchronized cells” value was “overall higher HDR frequency”. The HDR frequency in data set [1] (setting [11]) is given as 19%; in data set [4] (10 ρmol Cas9 RNP) it was 5-6%; in data set [4] (30 ρmol Cas9 RNP), 12-17%; in data set [4] (100 ρmol Cas9 RNP) it was 24-25%. In addition, the HDR efficiency in data set [1] (nocodazole synchronization, 10 ρmol Cas9 RNP) is listed as 9-15%; in data set [1] (nocodazole synchronization, 30 ρmol Cas9 RNP) it was 22-28%; in data set [1] (nocodazole synchronization, 100 ρmol Cas9 RNP), 24-32%. Moreover, the “Highest HDR frequency (representative gel of triplicate experiment)” value in data set [1] (nocodazole synchronization, 100 ρmol of Cas9, 100 ρmol template 1) was determined as 31%. For the same molecule, the “Enhancement of HDR frequency by nocodazole synchronization” value in data set [4] (setting [10]) is given as “over six-fold”. Also, in data set [2] (setting [7]), the “NHEJ frequency compared to the unsynchronized cells” value was “increased the NHEJ frequency slightly”. For the same molecule, the “Increase of NHEJ frequency by synchronization” value in data set [2] (nocodazole vs unsynchronized, 10 ρmol Cas9 RNP) is given as “two-fold”; in data set [2] (nocodazole vs unsynchronized, 30 ρmol Cas9 RNP), 1.5 fold. The “Enhancement of NHEJ frequency by synchronization” value in data set [2] (nocodazole vs unsynchronized, 100 ρmol Cas9 RNP) is listed as “diminished”. In data set [5], the HDR events entry is recorded as “no HDR event was detected”.

In turn, “template 4: single-stranded HDR template, 90-nt homology arms, complementary orientation (DNA GGATCCAAGCTT; single-stranded DNA HDR donor oligonucleotide, chemistry not given here)” had an HDR frequency in data set [1] (setting [9]) of 23%.

For `NC(Cn1ccc(=O)c(O)c1)C(=O)O` (centres unmarked) [mimosine], the “HDR frequency compared to the unsynchronized cells” value in data set [1] (setting [12]) was “greatly decreased”. For the same molecule, the “NHEJ frequency compared to the unsynchronized cells” value in data set [2] (setting [12]) was “greatly decreased”.

With `CC[C@H](C)C(=O)O[C@H]1C[C@@H](C)C=C2C=C[C@H](C)[C@H](CC[C@@H]3C[C@@H](O)CC(=O)O3)[C@H]21` [lovastatin], the “HDR frequency compared to the unsynchronized cells” value in data set [1] (setting [12]) is “greatly decreased”. In addition, the “NHEJ frequency compared to the unsynchronized cells” value in data set [2] (setting [12]) was “greatly decreased”.

`C[C@@]1(CO)[C@H](O)CC[C@@]2(C)[C@H]1CC[C@H]1C[C@@H]3C[C@@]12CC[C@]3(O)CO` [aphidicolin]: the HDR frequency in data set [1] (setting [11]) is reported as 15%. Further, the “HDR frequency with aphidicolin block” value in data set [1] (nocodazole synchronized, aphidicolin 2 μg/ml added to media immediately after nucleofection, 30 ρmol Cas9 RNP, 50 ρmol template) is “significantly reduced”. In addition, the Cell viability result in the data set on human ES cells was “substantial drop in cell viability”. Further, the “NHEJ frequency compared to the unsynchronized cells” value in data set [2] (setting [7]) is given as “increased the NHEJ frequency slightly”.

Take `NC(=O)NO` [hydroxyurea]: in data set [1] (setting [12]), the “HDR frequency compared to the unsynchronized cells” value is recorded as “greatly decreased”. The “NHEJ frequency compared to the unsynchronized cells” value in data set [2] (setting [12]) is “greatly decreased”.

As to “template 1: 183-nt single-strand DNA oligonucleotide HDR donor encoding a HindIII site, 90-nt and 55-nt asymmetrical homology arms (DNA CCACCGCTACGAAGCTTGTCATTGGAGGTGACATCGATGTCCTC; single-stranded DNA HDR donor oligonucleotide, chemistry not given here)”, the “HDR frequency compared between templates” value in data set [1] (30 ρmol Cas9 RNP, 50 ρmol HDR template) is recorded as “lower HDR frequency than template 3”.

B1: template 5: single-stranded HDR template, 90-nt homology arms, non-complementary orientation (SEQ ID NO:1397) (nucleic acid)
DNA: TGGCCAGGGAGTGGCCAGAGTCCAGCTTGGGCCCACGCAGGGGCCTGGCCAGCAGCAAGCAGCACTCTGCCCTCGTGGGTTTGTGGTTGCGGATCCAAGCTTTTGGAGGTGACATCGATGTCCTCCCCATTGGCCTGCTTCGTGGCAATGCGCCACCGGTTGATGTGATGGGAGCCCTTCTTCTTCTGCTCG
modifications: Synthetic nucleic acid sequence
B1 registered an HDR frequency in data set [1] (setting [9]) of 20%.
